# Values quoted from earlier work, collected in patent publication US8034844B2, “Compositions having a high antiviral efficacy” (The Dial Corporation, priority 2006, dated 2011).
# System: rhinoviral infections
# Details: vs placebo users
structure (smiles),measurement,value
II [iodine],Incidence of colds in users,significantly fewer colds than placebo users
